Reference: ChEMBL document CHEMBL3774369, “Tetrahydroisoquinoline Phenols: Selective Estrogen Receptor Downregulator Antagonists with Oral Bioavailability in Rat” (ACS Med Chem Lett, 2016)

Assay: Percentage unbound in Han Wistar rat plasma by equilibrium dialysis method
Format: ADME, cell-free
Conditions: not given

fraction unbound | SMILES
0.12 | COC[C@H](C)CN1[C@H](c2ccc(/C=C/C(=O)O)cc2)c2ccc(O)cc2C[C@H]1C
0.012 | O=C(O)/C=C/c1ccc(C2c3ccc(O)cc3CCN2c2ccccc2)cc1 (stereo not drawn)
0.024 | C[C@H](CF)CN1[C@H](c2ccc(/C=C/C(=O)O)cc2)c2ccc(O)cc2C[C@H]1C
0.0002 | C[C@@H]1Cc2cc(O)ccc2[C@@H](c2ccc(/C=C/C(=O)O)cc2)N1c1ccc(OC(F)(F)F)cc1

Second part, the compound before the results:

SMILES | fraction unbound
Cc1c(O)ccc2c1CCN(CC(C)C)[C@@H]2c1ccc(/C=C/C(=O)O)cc1 | 0.063
O=C(O)/C=C/c1ccc(C2c3ccc(O)cc3CCN2Cc2ccccc2)cc1 (stereo not drawn) | 0.013

Assay: Percentage unbound in human plasma by equilibrium dialysis method
Format: ADME, cell-free
Conditions: not given

fraction unbound | SMILES
0.16 | COC[C@H](C)CN1[C@H](c2ccc(/C=C/C(=O)O)cc2)c2ccc(O)cc2C[C@H]1C
0.012 | O=C(O)/C=C/c1ccc(C2c3ccc(O)cc3CCN2c2ccccc2)cc1 (stereo not drawn)
0.026 | C[C@H](CF)CN1[C@H](c2ccc(/C=C/C(=O)O)cc2)c2ccc(O)cc2C[C@H]1C
0.009 | C[C@@H]1Cc2cc(O)ccc2[C@@H](c2ccc(/C=C/C(=O)O)cc2)N1c1ccc(OC(F)(F)F)cc1

More lines, now with the values behind:

SMILES | fraction unbound
Cc1c(O)ccc2c1CCN(CC(C)C)[C@@H]2c1ccc(/C=C/C(=O)O)cc1 | 0.024
O=C(O)/C=C/c1ccc(C2c3ccc(O)cc3CCN2Cc2ccccc2)cc1 (stereo not drawn) | 0.007

Assay: Intrinsic clearance in Han Wistar rat hepatocytes assessed per 10^6 cells
Format: ADME, cell-based, Hepatocyte
Conditions: read-out: CLH

hepatocyte CLint [µL/min/1e6 cells] | SMILES
27 | COC[C@H](C)CN1[C@H](c2ccc(/C=C/C(=O)O)cc2)c2ccc(O)cc2C[C@H]1C
87 | O=C(O)/C=C/c1ccc(C2c3ccc(O)cc3CCN2c2ccccc2)cc1 (stereo not drawn)
47 | C[C@H](CF)CN1[C@H](c2ccc(/C=C/C(=O)O)cc2)c2ccc(O)cc2C[C@H]1C
9 | C[C@@H]1Cc2cc(O)ccc2[C@@H](c2ccc(/C=C/C(=O)O)cc2)N1c1ccc(OC(F)(F)F)cc1

The next lines start with the compound.

SMILES | hepatocyte CLint [µL/min/1e6 cells]
Cc1c(O)ccc2c1CCN(CC(C)C)[C@@H]2c1ccc(/C=C/C(=O)O)cc1 | 32
O=C(O)/C=C/c1ccc(C2c3ccc(O)cc3CCN2Cc2ccccc2)cc1 (stereo not drawn) | 40

Assay: Intrinsic clearance in human hepatocytes assessed per 10^6 cells
Format: ADME, cell-based, Hepatocyte
Conditions: read-out: CLH

hepatocyte CLint [µL/min/1e6 cells] | SMILES
7 | COC[C@H](C)CN1[C@H](c2ccc(/C=C/C(=O)O)cc2)c2ccc(O)cc2C[C@H]1C
67 | O=C(O)/C=C/c1ccc(C2c3ccc(O)cc3CCN2c2ccccc2)cc1 (stereo not drawn)
100 | C[C@H](CF)CN1[C@H](c2ccc(/C=C/C(=O)O)cc2)c2ccc(O)cc2C[C@H]1C
9 | C[C@@H]1Cc2cc(O)ccc2[C@@H](c2ccc(/C=C/C(=O)O)cc2)N1c1ccc(OC(F)(F)F)cc1

The remaining lines, values behind:

SMILES | hepatocyte CLint [µL/min/1e6 cells]
Cc1c(O)ccc2c1CCN(CC(C)C)[C@@H]2c1ccc(/C=C/C(=O)O)cc1 | 9
O=C(O)/C=C/c1ccc(C2c3ccc(O)cc3CCN2Cc2ccccc2)cc1 (stereo not drawn) | 150

Assay: Clearance in rat at 0.5 mg/kg, iv or 1 mg/kg, po
Format: ADME, organism-based
Conditions: in vivo

SMILES | clearance [mL/min/kg]
COC[C@H](C)CN1[C@H](c2ccc(/C=C/C(=O)O)cc2)c2ccc(O)cc2C[C@H]1C | 63
C[C@@H]1Cc2cc(O)ccc2[C@@H](c2ccc(/C=C/C(=O)O)cc2)N1c1ccc(OC(F)(F)F)cc1 | 4.2

Assay: Volume of distribution at steady state in rat at 0.5 mg/kg, iv or 1 mg/kg, po
Format: ADME, organism-based
Conditions: in vivo, read-out: Vdss

SMILES | Vd [L/kg]
COC[C@H](C)CN1[C@H](c2ccc(/C=C/C(=O)O)cc2)c2ccc(O)cc2C[C@H]1C | 0.6
C[C@@H]1Cc2cc(O)ccc2[C@@H](c2ccc(/C=C/C(=O)O)cc2)N1c1ccc(OC(F)(F)F)cc1 | 1.1

Assay: Half life in rat at 1 mg/kg, po
Format: ADME, organism-based
Conditions: in vivo

SMILES | half-life [min]
COC[C@H](C)CN1[C@H](c2ccc(/C=C/C(=O)O)cc2)c2ccc(O)cc2C[C@H]1C | 114
C[C@@H]1Cc2cc(O)ccc2[C@@H](c2ccc(/C=C/C(=O)O)cc2)N1c1ccc(OC(F)(F)F)cc1 | 402

Assay: Half life in rat at 0.5 mg/kg, iv
Format: ADME, organism-based
Conditions: in vivo

SMILES | half-life [min]
COC[C@H](C)CN1[C@H](c2ccc(/C=C/C(=O)O)cc2)c2ccc(O)cc2C[C@H]1C | 12
C[C@@H]1Cc2cc(O)ccc2[C@@H](c2ccc(/C=C/C(=O)O)cc2)N1c1ccc(OC(F)(F)F)cc1 | 252

Assay: in vivo
Conditions: rat, po, 1 mg/kg

SMILES | bioavailability [%]
COC[C@H](C)CN1[C@H](c2ccc(/C=C/C(=O)O)cc2)c2ccc(O)cc2C[C@H]1C | 3

Assay: physchem
Conditions: buffer, pH 7.4

logD | SMILES
1 | COC[C@H](C)CN1[C@H](c2ccc(/C=C/C(=O)O)cc2)c2ccc(O)cc2C[C@H]1C
2.4 | O=C(O)/C=C/c1ccc(C2c3ccc(O)cc3CCN2c2ccccc2)cc1 (stereo not drawn)
4.2 | C[C@@H]1Cc2cc(O)ccc2[C@@H](c2ccc(/C=C/C(=O)O)cc2)N1c1ccc(OC(F)(F)F)cc1

More lines, now with the values behind:

SMILES | logD
Cc1c(O)ccc2c1CCN(CC(C)C)[C@@H]2c1ccc(/C=C/C(=O)O)cc1 | 1.6
O=C(O)/C=C/c1ccc(C2c3ccc(O)cc3CCN2Cc2ccccc2)cc1 (stereo not drawn) | 2.2
